Measurements taken from publication PMC4519324, “Substrate Specificity, Inhibitor Selectivity and Structure-Function Relationships of Aldo-Keto Reductase 1B15: A Novel Human Retinaldehyde Reductase” (PLoS ONE, 2015).
Like-named read-outs stand apart in the source and are kept apart here.

Assays:
AKR1B10 [1] = biological target: T1, AKR1B10 (Homo sapiens, UniProt O60218); settings: substrate; cited from earlier work
T1 construct: made in house

AKR1B1 [2] = biological target: T2, AKR1B1 (Homo sapiens, UniProt P15121); settings: substrate, cited from earlier work; for Km: read-out: Km
T2 construct: made in house

AKR1B15 [3] = biological target: T3, AKR1B15 (Homo sapiens, UniProt C9JRZ8); experiment: Spectrophotometric activity assay (NADPH decrease at 340 nm), substrate kinetics; type: biochemical; settings: for Km / k cat: substrate, spectrophotometric, 0.2 mM NADPH; for Km: 100 mM sodium phosphate pH 7.0, 25°C, <1 values only approximate, read-out: Km; for k cat: pH 7.0, 25°C
T3 construct: made in house; host or cells: E. coli BL21(DE3), with or without chaperone plasmids pBB540/pBB542
T3 sequence (C9JRZ8 whole entry): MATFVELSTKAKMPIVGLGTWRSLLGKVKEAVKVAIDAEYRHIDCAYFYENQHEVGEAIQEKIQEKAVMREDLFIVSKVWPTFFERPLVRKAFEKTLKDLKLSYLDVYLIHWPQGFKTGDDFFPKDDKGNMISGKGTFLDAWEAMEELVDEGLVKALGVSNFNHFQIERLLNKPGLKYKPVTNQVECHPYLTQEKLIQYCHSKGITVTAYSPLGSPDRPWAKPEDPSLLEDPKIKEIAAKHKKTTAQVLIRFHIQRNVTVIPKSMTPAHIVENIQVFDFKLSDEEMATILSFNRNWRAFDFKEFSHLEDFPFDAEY

AKR1B15 [4] = biological target: T3, AKR1B15; experiment: Inhibition screening with D,L-glyceraldehyde as substrate; type: biochemical; settings: 6 mM D,L-glyceraldehyde as substrate, 0.1% DMSO
Experimental: (§1) Activities were determined in 100 mM sodium phosphate, pH 7.0, at 25°C, using 0.2 mM NADPH in 0.2-cm path length cuvettes, with freshly prepared substrate solutions. One unit of activity is defined as the amount of enzyme required to transform 1 μmol of substrate per min at 25°C.
(§2) All compounds tested as inhibitors were dissolved in DMSO and assayed in a final concentration of 0.1% (v/v) DMSO using 6 mM D,L-glyceraldehyde as a substrate. Kinetic constant and IC50 (compound concentration that inhibits enzymatic activity by 50%) values were calculated by fitting the initial rates to the appropriate equation using Grafit 5.0 (Eritacus Software) and values were given as the mean ± standard error of three experiments. Standard error values were less than 20% of the mean values.

AKR1B10 [5] = biological target: T1, AKR1B10; experiment: Spectrophotometric activity assay (NADPH decrease at 340 nm), substrate kinetics; type: biochemical; settings: for activity class: at saturating concentration of substrate for AKR1B15; for k cat / Km: substrate, spectrophotometric; for Km: read-out: Km
AKR1B1 [6] = biological target: T2, AKR1B1; experiment: as above; type: biochemical; settings: for activity class: at saturating concentration of substrate for AKR1B15
Experimental: as §1, §2

AKR1B10 [7] = biological target: T1, AKR1B10; parameters: method as in PMID 18087047; settings: HPLC-based method; cited from earlier work
AKR1B15 [8] = biological target: T3, AKR1B15; experiment: HPLC enzymatic activity assay with retinaldehyde isomers; type: biochemical; settings: HPLC-based method; for k cat: pH 7.4
Experimental: Activity assays with retinoids were carried out using an HPLC-based methodology. Briefly, retinaldehyde isomers were solubilized using glass tubes by a 10-min sonication at molar ratio 1:1 with fatty acid-free bovine serum albumin in 90 mM potassium phosphate, 40 mM potassium chloride, pH 7.4. The actual amount of solubilized retinoid was determined based on the corresponding molar absorption coefficient in aqueous solutions at the appropriate wavelength: ε400 = 29,500 M^−1·cm^−1 for all-trans-retinaldehyde and ε367 = 26,700 M^−1·cm^−1 for 9-cis-retinaldehyde. For retinol isomers, which were used as standards of the reaction product, their concentration was determined in hexane using ε325 = 51,770 M^−1·cm^−1 for all-trans-retinol and ε325 = 43,765 M^−1·cm^−1 for 9-cis-retinol. The reactions were started by the addition of cofactor and carried out for 15 min at 37°C in a final volume of 0.5 mL. With the aim to measure the steady-state enzymatic activity, the concentration of enzyme was kept from 25- to 100-fold lower than that of the substrate for all the enzymatic assays. The reactions were stopped by the addition of 1 mL of cold methanol and after two rounds of extraction with hexane, retinoids were analyzed by HPLC as previously described. All retinoid manipulations were performed under dim light.
as §2

AKR1B1 [9] = biological target: T2, AKR1B1; parameters: method as in PMID 18087047; settings: HPLC-based method; cited from earlier work
CCC(=O)CC(=O)CC = experiment: Spectrophotometric activity assay (NADPH decrease at 340 nm), substrate kinetics; type: biochemical, human; settings: other: AKR1B1, pH 7.0, 25.0 °C
Experimental: as §1, §2

CC(=O)CC(C)=O = experiment: as above; type: biochemical, human; settings: other: AKR1B1, pH 7.0, 25.0 °C
Experimental: as §1, §2

CC(C)=CCC/C(C)=C/C=O = experiment: as above; type: biochemical, human; settings: other: AKR1B1, pH 7.0, 25.0 °C
Experimental: as §1, §2

T1 sequence (O60218 whole entry): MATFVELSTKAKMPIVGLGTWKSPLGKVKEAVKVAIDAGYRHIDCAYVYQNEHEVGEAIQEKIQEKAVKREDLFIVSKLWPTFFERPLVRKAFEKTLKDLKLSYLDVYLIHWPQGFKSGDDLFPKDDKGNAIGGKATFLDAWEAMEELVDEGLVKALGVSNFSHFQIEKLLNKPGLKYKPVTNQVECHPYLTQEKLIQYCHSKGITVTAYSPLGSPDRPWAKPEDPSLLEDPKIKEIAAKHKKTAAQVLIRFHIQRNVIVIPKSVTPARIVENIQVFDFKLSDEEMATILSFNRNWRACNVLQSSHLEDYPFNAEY

Molecule | Km (AKR1B10 [1]) | k cat (min^−1) (AKR1B10 [1]) | Km (AKR1B1 [2]) | k cat (min^−1) (AKR1B1 [2]) | Km (AKR1B15 [3]) | k cat (AKR1B15 [3]) | other results
O=Cc1cccnc1 [pyridine-3-aldehyde] | 13 µM | 150 ^b min^−1 | 10 µM | 61 ^b min^−1 | 2.9 µM | 0.15 s⁻¹ | 
O=C1NC(=O)[C@@]2(CCOc3ccc(F)cc32)N1 [Sorbinil] |  |  |  |  |  |  | IC50 (AKR1B15 [4]): > 100 µM
C=CC=O [acrolein] | 110 µM | 116 ^c min^−1 | 884 µM | 11 ^c min^−1 | 36 µM | 0.147 s⁻¹ | 
NC(=O)C1=CN([C@@H]2O[C@H](COP(=O)(O)OP(=O)(O)OC[C@H]3O[C@@H](n4cnc5c(N)ncnc54)[C@H](O)[C@@H]3O)[C@@H](O)[C@H]2O)C=CC1 [NADH] |  |  |  |  |  |  | enzymatic activity relative to that with NADPH (AKR1B15 [3]; 0.2 mM NADH): less than 5%
CCC(C)=O [2-butanone] |  |  |  |  | 780 µM | 0.175 s⁻¹ | activity class (AKR1B10 [5]): LA (LA, low activity (≤ 10 mU/mg) was detected at saturating concentration of substrate for AKR1B15); activity class (AKR1B1 [6]): LA (LA, low activity (≤ 10 mU/mg) was detected at saturating concentration of substrate for AKR1B15)
CC1=C(/C=C/C(C)=C/C=C/C(C)=C/C=O)C(C)(C)CCC1 [All-trans-retinaldehyde] |  |  |  |  |  |  | Km (AKR1B10 [7]): 0.6 ± 0.1 µM; k cat (AKR1B10 [7]): 0.45 ± 0.017 s⁻¹; k cat (AKR1B15 [8]; 37°C): 0.09 ± 0.0083 s⁻¹; Km (AKR1B15 [8]; 37°C, pH 7.4, read-out: Km): 1 ± 0.3 µM; Km (AKR1B1 [9]): 1.1 ± 0.1 µM; k cat (AKR1B1 [9]): 0.015 ± 0.0017 s⁻¹
CC(C)=CCCC(C)=CC=O (mixture of isomers) [citral] |  |  |  |  | 1.5 µM | 0.0917 s⁻¹ | k cat (AKR1B10 [5]): 0.583 s⁻¹; Km (AKR1B10 [5]): 4.5 µM
AKR1B1 (Homo sapiens) |  |  |  |  |  |  | Km (CCC(=O)CC(=O)CC): 12,000 μM; kcat (CCC(=O)CC(=O)CC): 0.433 s⁻¹; kcat/Km (CCC(=O)CC(=O)CC): 36.7 M⁻¹ s⁻¹; Km (CC(=O)CC(C)=O): 8,100 μM; kcat (CC(=O)CC(C)=O): 0.278 s⁻¹; kcat/Km (CC(=O)CC(C)=O): 36.7 M⁻¹ s⁻¹; Km (CC(C)=CCC/C(C)=C/C=O): 35 µM; kcat (CC(C)=CCC/C(C)=C/C=O): 1.13 s⁻¹; kcat/Km (CC(C)=CCC/C(C)=C/C=O): 29200 M⁻¹ s⁻¹
CC1=C(/C=C/C(C)=C\C=C\C(C)=C\C=O)C(C)(C)CCC1 [9-cis-retinaldehyde] |  |  |  |  |  |  | Km (AKR1B10 [7]): 0.7 ± 0.1 µM; k cat (AKR1B10 [7]): 0.015 ± 0.0017 s⁻¹; k cat (AKR1B15 [8]; 37°C): 0.0633 ± 0.0033 s⁻¹; Km (AKR1B15 [8]; 37°C, pH 7.4, read-out: Km): 0.16 ± 0.03 µM; Km (AKR1B15 [8]; read-out: Km value): 0.16 µM; Km (AKR1B1 [9]): 0.4 ± 0.1 µM; k cat (AKR1B1 [9]): 0.012 ± 0.0033 s⁻¹
CCCCCC=O [hexanal] | 112 µM | 142 ^b min^−1 | 5 µM | 28 ^b min^−1 | 3.1 µM | 0.122 s⁻¹ | 
CCCCCC(O)C=CC=O (stereo not drawn) [4-hydroxy-2-nonenal] | 31 µM | 121 ^c min^−1 | 716 µM | 50 ^c min^−1 | 2.2 µM | 0.0867 s⁻¹ | 
CCCC(=O)C(C)=O [2,3-hexanedione] | 51 µM | 79 ^b min^−1 | 17 µM | 49 ^b min^−1 | < 1 µM | 0.158 s⁻¹ | 
O=C1C=CCCC1 [2-cyclohexen-1-one] |  |  |  |  | 365 µM | 0.0735 s⁻¹ | activity class (AKR1B10 [5]): LA (LA, low activity (≤ 10 mU/mg) was detected at saturating concentration of substrate for AKR1B15); activity class (AKR1B1 [6]): LA (LA, low activity (≤ 10 mU/mg) was detected at saturating concentration of substrate for AKR1B15)
O=C/C=C/c1ccccc1 [cinnamaldehyde] |  |  |  |  | < 1 µM | 0.222 s⁻¹ | k cat (AKR1B10 [5]): 4 s⁻¹; Km (AKR1B10 [5]): 34.7 µM; Km (AKR1B1 [6]; substrate, spectrophotometric): 31 µM; k cat (AKR1B1 [6]; substrate, spectrophotometric): 0.483 s⁻¹
CC(C)=CCCC(C)=CCCC(C)=CC=O [farnesal] | 2.3 µM | 30 ^b min^−1 | 37 µM | 27 ^b min^−1 | < 1 µM | 0.08 s⁻¹ | 
